Reference: patent US10583109B2, “Use of silver(I) complexes as anticancer agents” (University of Johannesburg, priority 2012, dated 2020)

Key:
[1] = system: SNO-oesophageal cancer cells; type: cell-based; settings: 100 μM, 24 hour treatment
Description: The SNO-oesophageal cancer cells were cultured in Dulbecco's modified Eagles medium (DMEM) containing 10% Foetal bovine serum (FBS), 0.8% Penicillin/Streptomycin/Fungizone and 0.2% Gentamycin. The SNO-oesophageal cancer cells were subcultured every 48 hours and incubated at 37° C. under a 5% CO2 humidified atmosphere. After 48 hours the cells were trypsinized and plated (6×10^5 cells) in 3.5 cm culture dishes and left to cultivate for 24 hours.
MCF-7 breast cancer cells, in terms of a first study, and SNO-oesophageal cancer cells, in terms of a second study, were treated with 10 μM silverthiocyanide complexes (1)-(5), as well as their ligands (Ligand-1 to Ligand-5) over a 24 hour incubation period. These complexes were dissolved in 0.1% Dimethyl sulfoxide (DMSO). The DMSO alone (vehicle control) decreased the viability with approximately 2.2%, signifying its minimal influence in cancer cell growth. For comparative purposes, 100 μM Cisplatin (CDDP) and 25% H2O2 was included which respectively serves as the apoptotic and necrotic controls. Cisplatin was prepared in 0.9% NaCl, whereas H2O2 was prepared in the supplemented DMEM media right before treatment. An untreated negative control (UT) was exposed to similar conditions as the treated cells and monitored during the experimental study.
An AlamarBlue® Viability® (Serotec, UK) assay was performed after a 24 hour treatment with complexes (1)-(5) and their ligands (Ligand-1 to Ligand-5, respectively) to evaluate the cellular effect the instant complexes (and their ligands) may have on the cancer cells. AlamarBlue® dye (10%) was incubated with trypsinized cells over a 2 hour period before the fluorescence was measured with a Synergy HT Multi-Detection Microplate reader (BioTek, Winooski, Vt.) at wavelengths of 530 nm and (excitation) and 590 nm (emission). This fluorescent based assay in particular involves the metabolic oxidation-reduction reaction of resazurin to a reduced resorufin product that is directly proportional to the amount of viable cells.
The percentage cellular viability of differentially treated SNO-oesophageal cells was determined using an AlamarBlue® assay, as depicted in FIG. 7. Different controls (grey) were included: untreated, 0.1% DMSO solvent and apoptotic control (100 μM Cisplatin) as well as the corresponding ligands (10 μM) of complexes (1)-(5). Cells were treated with silver(I) thiocyanate phosphine complexes (1)-(5) at a concentration of 10 μM. The percentages were calculated with respect to the control and error bars were constructed on the basis of Standard Error of the Mean (SEM) where n=9 except for the ligand of compound 4 (n=8). The P-values (*P<0.001 and **P<0.0001) were determined with the Student's T-test to evaluate the significant difference.
The cells were thereafter treated with complexes (6)-(9) at a concentration of 10 μM prepared in 0.1% DMSO. Treatment with either 25% H2O2 or 100 μM CDDP served as controls for necrosis and apoptosis respectively. The CDDP was prepared in 0.9% NaCl while the H2O2 was diluted with supplemented DMEM prior to treatment.
A suspension (100 μl) of the differentially treated cells was added in triplicate to a microtiter plate. In the dark, AlamarBlue® dye (10 μl) was added to each well containing a sample, followed by a 2 hour incubation in a 5% CO2 incubator at 37° C. The fluorescence was read on a Synergy HT Multi-Detection Microplate reader at a wavelength of 530 nm and (excitation) and 590 nm (emission). In terms of this study, the apoptotic control CDDP (100 μM) was included. Error bars represent the standard error of the mean (SEM) where n=9. The Student's T-test was used to determine the significant difference of the treatments with respect to DMSO (P*<0.05 and P**<0.001). The silver(I) nitrate phosphine complexes under evaluation decreased the cancer cell viability to a large extent compared to DMSO except complex (9).
SNO-oesophageal cancer cells were a gift from the University of Pretoria, RSA. […]

[2] = system: Caspase-3/7; assay: Caspase-Glo 3/7 assay in SNO-oesophageal cancer cells; type: cell-based; settings: 100 μM, 24 hours treatment
Description: The Caspase-Glo®3/7 assay was used to confirm that the structural changes observed are due to apoptotic cell death. In this luminescent based assay, a 1:1 ratio of the Caspase-Glo® reagent was added to treated cells into a microtiter plate. The plate was gently agitated for 30 seconds and incubated for 30 minutes at room temperature. The whole luminescent intensity was measured using a Synergy HT Multi-Detection Microplate reader, where the intensity of the luminescence is proportional to the Caspase-3/7 concentration.
The error bars where constructed based on the standard error of the mean (SEM) where n=6. The significant difference were calculated with respect to the vehicle control (P<**0.001). A relative increase in expression was observed throughout.

[3] = system: A375 malignant melanoma cancer cells; assay: AlamarBlue viability and proliferation assay of A375 malignant melanoma cancer cells; type: cell-based, human; settings: concentration range 1.0 μM-10.0 μM, viability as percentage of 1.0% DMSO vehicle control, quadratic equation
Description: A375 melanoma cancer cells originate from an immortal cell line from human malignant melanoma from skin (ATCC no CRL-1619).
A375 malignant melanoma cancer cells were cultured in Dulbecco's Modified Eagle's Medium (DMEM), 13.53 g/L with sodium bicarbonate (NaHCO3), 3.7 g/L supplemented with 10% fetal bovine serum (FBS), and 1% Penicillin/Streptomycin/Fungizone in 75 cm^3 sterile culture flasks. Cells were incubated at 37° C. with 5% CO2 in a humidified atmosphere and were subcultured twice a week. Cells were subcultured every 48 hours and used between Passages 3 and 7. […]
An AlamarBlue® (Serotec, UK) assay was done to investigate the proliferation capabilities of the differentially treated cells. AlamarBlue® dye (10%) was incubated with trypsinized cells over a 2-hour period before the fluorescence was measured with a Synergy HT Multi-Detection Microplate reader (BioTek, Winooski, Vt.) at wavelengths of 530 nm and (excitation) and 590 nm (emission). […]
Treatment volumes were 1.0 μL of 1-10 μM range of stock solutions. Fluorescence was measured with 530 nm excitation wavelength and 590 nm emission wavelength. FIG. 21 represents 3 biological repeats measured in triplicate. DMEM reference blanks were averaged and subtracted from all readings and cellular viability values were calculated as percentage of the 1.0% DMSO vehicle control (VC). […]

[4] = system: A375 malignant melanoma cancer cells; assay: Celltitre-Glo Luminescent Cell Viability Assay (ATP) in A375 cells; type: cell-based, human; settings: 10 µM
Description: (§1) For purposes of the Celltitre-Glo™ Luminescent Cell Viability [Promega, USA] assay, a 1:1 mixture of cell sample to Celltitre-Glo™ substrate/buffer mix reagent, in duplicate, was added to 96-well black plate, shaken for 30 seconds at room temperature and then further incubated for 30 minutes. Whole luminescence was then measured with a Synergy HT Multi-Detection Microplate Reader. The CytoTox-ONE™ Homogenous Membrane Integrity [Promega, USA] assay is a rapid fluorescent assay that measures the level of lactate dehydrogenase leaked from damaged membranes, therefore, the amount of fluorescence measured is directly proportional to the amount of lysed/damaged cells. In triplicate, a 1:1 cell sample to CytoTox-ONE™ substrate/buffer mix reagent was added to a 96-well clear plate, shaken for 30 seconds followed by incubation for 10 minutes. A CytoTox-ONE™ stop solution was added to each sample followed by a further 30 second shake on an orbital shaker. […] The fluorescence was then measured with a Synergy HT Multi-Detection Microplate Reader at an excitation wavelength of 530 nm and emission wavelength of 590 nm. FIG. 25 depicts the percentage ATP and Lactate Dehydrogenase (LDH) measured in differentially treated A375 malignant melanoma cancer cells as determined by the Celltitre-Glo™ Luminescent Cell Viability Assay and CytoTox-ONE™ Membrane Integrity Assay respectively. […]

[5] = system: A375 malignant melanoma cancer cells; assay: CytoTox-ONE Membrane Integrity Assay (LDH) in A375 cells; type: cell-based, human; settings: 10 µM
Description: as §1

[6] = system: Caspase 3/7; assay: Caspase-GLO 3/7 assay in A375 cells; type: cell-based, human; settings: 10 μM, 24 hour treatments
Excerpt: Caspase-GLO™ 3/7, 8 and 9 Assays are luminescent assays that measure Caspase activities, which have key effector functions in intrinsic and extrinsic apoptosis, therefore the amount of luminescence measured is proportional to the amount of Caspase activity present. The assays are based on the principle that after Caspase cleavage, a substrate containing the tetrapeptide DEVD sequence binds with Caspase and is released for a luminescent reaction with a thermostable luciferase enzyme. In duplicate, a 1:1 cell sample to Caspase-Glo™ substrate/buffer mix reagent was added into 96-well black plates, then shaken for 30 seconds at room temperature followed by a 1 hour incubation. Whole luminescence was then measured with a Synergy HT Multi-Detection Microplate Reader.
FIG. 26 depicts Caspase 3/7, 8 and 9 levels in differentially treated A375 malignant melanoma cancer cells as determined by relative luminescence recorded using Caspase-GLO™ assays. Caspase levels represented as a percentage of 1.0% DMSO Vehicle Control (VC) set at 100%. Cells treated with: CDDP=100 μM Cisplatin Positive Apoptotic Control and then 10 μM concentrations of complex (13) and complex (14). […]

SMILES: N.N.[Cl][Pt][Cl] [Cisplatin, reference compound]
- cells killed [1]: ~74%
- Caspase induction [2]: 2 fold increase

SMILES: [Br][Ag]([PH](c1ccccc1)(c1ccccc1)c1ccccc1)([PH](c1ccccc1)(c1ccccc1)c1ccccc1)[PH](c1ccccc1)(c1ccccc1)c1ccccc1 [complex (13), AgBr(PPh3)3]
- IC50 [3]: 5.16 µM
- ATP levels (cellular viability) [4]: less than 20%
- LDH levels compared to the VC [5]: significant increase
- Caspase 3/7 levels compared to the VC [6]: increased

SMILES: O=[N+]([O-])[O-].[Ag+].c1ccc(P(c2ccccc2)c2ccccc2)cc1.c1ccc(P(c2ccccc2)c2ccccc2)cc1.c1ccc(P(c2ccccc2)c2ccccc2)cc1 [complex (14), AgNO3(PPh3)3]
- IC50 [3]: 6.77 µM
- LDH levels compared to the VC [5]: significant increase
- Caspase 3/7 levels compared to the VC [6]: increased
